Experimental data as given in patent US9914730B2, “Azaquinazoline inhibitors of Atypical protein Kinase C” (Ignyta, Inc., priority 2012, dated 2018).

Each compound was assayed against T1, full-length human PKCι (Homo sapiens, UniProt P41743) (assay: PKCι IC50 IMAP assay, full-length PKCι at 150 μM ATP). Details: read-out: IC50 in IMAP assay against full length PKCi at 150 μM ATP.
T1 construct: Recombinant, full-length human PKCι expressed in Sf21 insect cells is also commercially available; purchased; host or cells: Sf21 insect cells
T1 sequence (P41743 1-596): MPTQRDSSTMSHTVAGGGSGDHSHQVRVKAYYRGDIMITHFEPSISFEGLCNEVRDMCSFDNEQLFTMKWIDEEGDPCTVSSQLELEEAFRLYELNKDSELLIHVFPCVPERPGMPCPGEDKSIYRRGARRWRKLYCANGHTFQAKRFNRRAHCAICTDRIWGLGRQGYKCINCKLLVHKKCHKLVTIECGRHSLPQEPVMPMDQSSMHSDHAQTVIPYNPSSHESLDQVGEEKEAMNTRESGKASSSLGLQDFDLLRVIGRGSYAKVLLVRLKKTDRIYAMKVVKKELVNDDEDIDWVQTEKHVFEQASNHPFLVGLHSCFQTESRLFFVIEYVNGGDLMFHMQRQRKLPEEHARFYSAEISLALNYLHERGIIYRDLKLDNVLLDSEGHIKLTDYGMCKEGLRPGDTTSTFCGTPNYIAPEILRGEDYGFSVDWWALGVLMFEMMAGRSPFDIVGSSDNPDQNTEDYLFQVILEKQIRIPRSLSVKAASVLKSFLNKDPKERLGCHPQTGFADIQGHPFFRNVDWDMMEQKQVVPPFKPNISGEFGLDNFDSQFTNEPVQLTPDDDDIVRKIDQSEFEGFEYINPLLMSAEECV
Format: biochemical
Procedure, shortened: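 Compounds in 4% final DMSO are mixed with Sf21-derived full-length human PKCι (typically 15 pM) and 100 nM FAM-labelled pseudosubstrate peptide, then started with 150 μM ATP. Reaction runs 60 min at room temperature, is quenched with IMAP development reagent for 2 h, and fluorescence polarisation is measured to derive IC50.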

IC50	Compound
< 0.1 µM	C[C@@H](Nc1cc(-c2nc(N3CCNCC3)c3c(C4CC4)cncc3n2)ccn1)c1cccc(F)c1 [Example 644, [4-(5-Cyclopropyl-4-piperazin-1-yl-pyrido[3,4-d]pyrimidin-2-yl)-pyridin-2-yl]-[(R)-1-(3-fluoro-phenyl)-ethyl]-amine]
< 0.1 µM	C[C@H]1CN(c2nc(-c3ccnc(Nc4ccccc4)c3)nc3cncc(C4CC4)c23)CCN1 [Example 569, {4-[5-Cyclopropyl-4-((S)-3-methyl-piperazin-1-yl)-pyrido[3,4-d]pyrimidin-2-yl]-pyridin-2-yl}-phenyl-amine]
0.1 to 1 µM	N#Cc1ccnc(Nc2cc(-c3nc(N4CCC(O)CC4)c4c(C5CC5)cncc4n3)ccn2)c1 [Example 482, 2-{4-[5-Cyclopropyl-4-(4-hydroxy-piperidin-1-yl)-pyrido[3,4-d]pyrimidin-2-yl]-pyridin-2-ylamino}-isonicotinonitrile]
0.1 to 1 µM	COc1cncc2nc(-c3ccnc(Nc4ccc(C(F)(F)F)cc4)c3)nc(N3CCNCC3)c12 [Example 207, [4-(5-Methoxy-4-piperazin-1-yl-pyrido[3,4-d]pyrimidin-2-yl)-pyridin-2-yl]-(4-trifluoromethyl-phenyl)-amine]
< 0.1 µM	Fc1ccc(Cl)c(F)c1Nc1cc(-c2nc(N3CCNCC3)c3c(C4CC4)cncc3n2)ccn1 [Example 618, (3-Chloro-2,6-difluoro-phenyl)-[4-(5-cyclopropyl-4-piperazin-1-yl-pyrido[3,4-d]pyrimidin-2-yl)-pyridin-2-yl]-amine]
< 0.1 µM	{4-[5-Cyclopropyl- 4-((R)-3- fluoromethyl- piperazin-1- yl)-pyrido[3,4-d]- pyrimidin-2-yl]- pyridin-2-yl}-(6- fluoro-pyridin-2- yl)-amine [Example 512]
0.1 to 1 µM	COc1cncc2nc(-c3ccnc(Nc4ccc(CC(N)=O)cc4)c3)nc(N[C@@H]3CCNC3)c12 [Example 326, 2-(4-{4-[5-Methoxy-4-((R)-pyrrolidin-3-ylamino)-pyrido[3,4-d]pyrimidin-2-yl]-pyridin-2-ylamino}-phenyl)-acetamide]
< 0.1 µM	FC(F)(F)c1ccccc1Nc1cc(-c2nc(N3CCNCC3)c3c(C4CC4)cncc3n2)ccn1 [Example 516, [4-(5-Cyclopropyl-4-piperazin-1-yl-pyrido[3,4-d]pyrimidin-2-yl)-pyridin-2-yl]-(2-trifluoromethyl-phenyl)-amine]
1 to 10 µM	Cc1cccc(-c2nccc3c(NC[C@@H](N)Cc4ccccc4)nc(-c4ccncc4)nc23)c1 [Example 119, N-[(2S)-2-amino-3-phenylpropyl]-8-(3-methyl-phenyl)-2-(pyridin-4-yl)-pyrido[3,4-d]-pyrimidin-4-amine]
0.1 to 1 µM	FC(F)(F)c1cc2c(-c3nc(NC4CCNCC4(F)F)c4c(C5CC5)cncc4n3)ccnc2[nH]1 (stereo not drawn) [Example 2155, [5-Cyclopropyl-2-(2-trifluoromethyl-1H-pyrrolo[2,3-b]pyridin-4-yl)-pyrido[3,4-d]pyrimidin-4-yl]-(3,3-difluoro-piperidin-4-yl)-amine]
10 to 40 µM	OCC1CN(c2nc(-c3ccncc3)nc3c(Cl)nccc23)C1 [Example 73, {1-[8-chloro-2-(pyridin-4-yl)-pyrido[3,4-d]-pyrimidin-4-yl]-azetidin-3-yl}-methanol]
0.1 to 1 µM	O=C(O)c1ccc(Nc2cc(-c3nc(N4CCNCC4)c4c(C5CC5)cncc4n3)ccn2)cc1 [Example 684, 4-[4-(5-Cyclopropyl-4-piperazin-1-yl-pyrido[3,4-d]pyrimidin-2-yl)-pyridin-2-ylamino]-benzoic acid]
< 0.1 µM	COc1cncc2nc(-c3ccnc(Nc4ccc(C(F)(F)F)cn4)c3)nc(N3CCNCC3)c12 [Example 368, [4-(5-Methoxy-4-piperazin-1-yl-pyrido[3,4-d]pyrimidin-2-yl)-pyridin-2-yl]-(5-trifluoromethyl-pyridin-2-yl)-amine]
< 0.1 µM	CN1CCP(=O)(c2ccc(Nc3cc(-c4nc(N5CCNCC5)c5c(C6CC6)cncc5n4)ccn3)cc2)CC1 [Example 614, [4-(5-Cyclopropyl-4-piperazin-1-yl-pyrido[3,4-d]pyrimidin-2-yl)-pyridin-2-yl]-[4-(1-methyl-4-oxo-4λ^5-[1,4]azaphos-phinan-4-yl)-phenyl]-amine]
< 0.1 µM	COc1cncc2nc(-c3ccnc(Nc4ccc5c(C)n(C)nc5c4)c3)nc(N3CCNCC3)c12 [Example 490, (2,3-Dimethyl-2H-indazol-6-yl)-[4-(5-methoxy-4-piperazin-1-yl-pyrido[3,4-d]pyrimidin-2-yl)-pyridin-2-yl]-amine]
< 0.1 µM	Fc1ccc(Nc2cc(-c3nc(N4CCNCC4)c4c(Cl)cncc4n3)ccn2)nc1 [Example 258, [4-(5-Chloro-4-piperazin-1-yl-pyrido[3,4-d]pyrimidin-2-yl)-pyridin-2-yl]-(5-fluoro-pyridin-2-yl)-amine]
< 0.1 µM	FC1(c2cc3c(-c4nc(N5CCNCC5)c5c(C6CC6)cncc5n4)ccnc3[nH]2)CC1 [Example 2127, 5-Cyclopropyl-2-[2-(1-fluoro-cyclopropyl)-1H-pyrrolo[2,3-b]pyridin-4-yl]-4-piperazin-1-yl-pyrido[3,4-d]pyrimidine]
1 to 10 µM	COC[C@H]1CN(c2nc(N3CCOCC3)nc3cncc(OC)c23)CCN1 [Example 1009, 5-Methoxy-4-((R)-3-methoxymethyl-piperazin-1-yl)-2-morpholin-4-yl-pyrido[3,4-d]pyrimidine]
< 0.1 µM	COc1cncc2nc(-c3ccnc(Nc4ccncn4)c3)nc(N3CCNCC3)c12 [Example 211, [4-(5-Methoxy-4-piperazin-1-yl-pyrido[3,4-d]pyrimidin-2-yl)-pyridin-2-yl]-pyrimidin-4-yl-amine]
< 0.1 µM	COc1cc(Nc2cc(-c3nc(N4CCNCC4)c4c(C5CC5)cncc4n3)ccn2)c(F)cc1F [Example 628, [4-(5-Cyclopropyl-4-piperazin-1-yl-pyrido[3,4-d]pyrimidin-2-yl)-pyridin-2-yl]-(2,4-difluoro-5-methoxy-phenyl)-amine]
0.1 to 1 µM	Fc1ccc(Nc2cc(-c3nc(N4CCNCC4)c4c(Cl)cncc4n3)ccn2)c(F)c1 [Example 255, [4-(5-Chloro-4-piperazin-1-yl-pyrido[3,4-d]pyrimidin-2-yl)-pyridin-2-yl]-(2,4-difluoro-phenyl)-amine]
< 0.1 µM	COc1cncc2nc(-c3ccnc(Nc4cccc(N5CCOCC5)c4)c3)nc(N[C@@H]3CCNC3)c12 [Example 227, {5-Methoxy-2-[2-(3-morpholin-4-yl-phenylamino)-pyridin-4-yl]-pyrido[3,4-d]pyrimidin-4-yl}-(R)-pyrrolidin-3-yl-amine]
< 0.1 µM	Fc1ccc(Nc2cc(-c3nc(N4CCNCC4)c4c(C5CC5)cncc4n3)ccn2)cc1 [Example 594, [4-(5-Cyclopropyl-4-piperazin-1-yl-pyrido[3,4-d]pyrimidin-2-yl)-pyridin-2-yl]-(4-fluoro-phenyl)-amine]
0.1 to 1 µM	CN1CCN(c2cccc(Nc3cc(-c4nc(N5CCCCC5)c5c(C6CC6)cncc5n4)ccn3)c2)CC1 [Example 710]
< 0.1 µM	OC1CCN(c2nc(-c3ccnc(Nc4cnn(CC5CCNCC5)c4)c3)nc3cncc(C4CC4)c23)CC1 [Example 732, 1-{5-Cyclopropyl-2-[2-(1-piperidin-4-ylmethyl-1H-pyrazol-4-ylamino)-pyridin-4-yl]-pyrido[3,4-d]pyrimidin-4-yl}-piperidin-4-ol]
1 to 10 µM	NC(=O)c1cc(F)c(Nc2cc(-c3nc(N4CCNCC4)c4c(C5CC5)cncc4n3)ccn2)c(F)c1 [Example 822, 4-[4-(5-Cyclopropyl-4-piperazin-1-yl-pyrido[3,4-d]pyrimidin-2-yl)-pyridin-2-ylamino]-3,5-difluoro-benzamide]
< 0.1 µM	OC1CCN(c2nc(-c3ccnc(Nc4cccc(N5CCOCC5)c4)c3)nc3cncc(C4CC4)c23)CC1 [Example 834, 1-{5-Cyclopropyl-2-[2-(3-morpholin-4-yl-phenylamino)-pyridin-4-yl]-pyrido[3,4-d]pyrimidin-4-yl}-piperidin-4-ol]
0.1 to 1 µM	FC[C@H]1CN(c2nc(-c3ccnc(Nc4cc(C(F)(F)F)ccn4)c3)nc3cncc(C4CC4)c23)CCN1 [Example 511, {4-[5-Cyclopropyl-4-((R)-3-fluoromethyl-piperazin-1-yl)-pyrido[3,4-d]pyrimidin-2-yl]-pyridin-2-yl}-(4-trifluoromethyl-pyridin-2-yl)-amine]
10 to 40 µM	FC(F)(F)c1cc2c(-c3nc(N4CCC4)c4c(C5CC5)cncc4n3)ccnc2[nH]1 [Example 1248, 4-Azetidin-1-yl-5-cyclopropyl-2-(2-trifluoromethyl-1H-pyrrolo[2,3-b]pyridin-4-yl)-pyrido[3,4-d]pyrimidine]
< 0.1 µM	COc1cncc2nc(-c3ccnc(NC(=O)Cc4ccc(C(F)(F)F)cc4)c3)nc(N3CCNCC3)c12 [Example 391, N-[4-(5-Methoxy-4-piperazin-1-yl-pyrido[3,4-d]pyrimidin-2-yl)-pyridin-2-yl]-2-(4-trifluoromethyl-phenyl)-acetamide]
